Entries after “also recorded” stand apart in the source; their conditions may differ.
What was measured:
PXR LBD [1] = molecular target: T1, PXR LBD (Homo sapiens, UniProt O75469); test: TR-FRET PXR LBD ligand binding assay; details: TR-FRET competition with BODIPY FL vindoline
T1 construct: GST-PXR LBD protein (cat. # PV4841) were purchased from Thermo Fisher Scientific; purchased Thermo Fisher Scientific PV4841
T1 sequence (O75469 146-433 limits assumed): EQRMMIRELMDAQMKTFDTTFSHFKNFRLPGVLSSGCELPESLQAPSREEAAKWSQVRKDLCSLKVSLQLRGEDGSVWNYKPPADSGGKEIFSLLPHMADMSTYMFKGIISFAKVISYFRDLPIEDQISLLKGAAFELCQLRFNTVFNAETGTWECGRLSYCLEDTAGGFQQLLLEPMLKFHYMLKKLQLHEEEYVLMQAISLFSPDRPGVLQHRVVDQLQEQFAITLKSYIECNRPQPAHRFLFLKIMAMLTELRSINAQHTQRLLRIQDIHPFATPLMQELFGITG
Protocol: The TR-FRET PXR LBD ligand binding assay measures binding of PXR ligands by competition with a fluorescently labeled ligand (BODIPY FL vindoline) (Supplementary Figure S3) and was performed as previously described with minor modifications ([24]). […] BODIPY FL vindoline (15 μl/well, 133.3 nM in assay buffer) was dispensed into 384-well low-volume black assay plates. An Echo 650 Acoustic Liquid Handler then dispensed 60 nl/well of compound stocks or DMSO.

PXR LBD [2] = molecular target: T1, PXR LBD; test: TR-FRET PXR LBD SRC-1 recruitment assay; type: biochemical; details: percent relative to 10 μM T0901317 and DMSO
Protocol: The TR-FRET PXR LBD SRC-1 recruitment assay measures PXR LBD interaction with a fluorescently labeled SRC-1 peptide (Supplementary Figure S1) and was performed as previously described with minor modifications ([23]). […] FAM-SRC-1 peptide solution (15 μl/well, 133.3 nM in assay buffer) was dispensed into 384-well black low-volume assay plates. An Echo 650 Acoustic Liquid Handler then dispensed 60 nl/well of compound stocks or DMSO. […] The plates were shaken at 900 rpm (80 × g) on an IKA MTS 2/4 digital microtiter shaker for 1 min then centrifuged at 1000 rpm (201 × g) for 30 s in an Eppendorf 5810 centrifuge equipped with an A-4-62 swing-bucket rotor. The plates were protected from light exposure and incubated for 1 h at room temperature (RT). After incubation, the TR-FRET signal from each well was collected with a PHERAstar FS Microplate Reader (BMG Labtech). The measured relative fluorescence units (RFU) were normalized for each well using equation (2),

HepG2 cells = test: Cytotoxicity assay (CellTiter-Glo); type: cell-based, human; details: HepG2, 24 h
Protocol: HepG2 cells (1 × 10^4/well in 25 μl phenol red-free DMEM supplemented with 5% charcoal/dextran-treated FBS) were plated and treated as in the transactivation assays. After 24 h compound treatment, the CellTiter-Glo Luminescent Cell Viability Assay (Promega) and an EnVision microplate reader were used to assess cytotoxicity. DMSO wells with cells served as negative controls, and wells without cells served as positive controls. The averaged luminescence signal of the wells without cells was subtracted from the luminescence signals of all other wells, and the background subtracted values were normalized to DMSO-treated wells containing cells to obtain percent cell viability.

PGK promoter = PGK promoter firefly luciferase reporter; type: cell-based, human; details: HepG2, 24 h
Protocol: HepG2 cells (7.5 × 10^5/well) were plated in six-well tissue culture-treated plates. The following day, cells were co-transfected with pGL3-CYP3A4-luc (2 μg/well), pRL-CMV (200 ng/well) and 100 ng/well of either empty vector (pcDNA3), pcDNA3-FLAG-PXR, pCMV6-mPXR or pGL4.53-PGK-PXR using Lipofectamine 3000 (Thermo Fisher Scientific). Twenty-four hours after transfection, cells were trypsinized and suspended in phenol red-free DMEM (Thermo Fisher Scientific) supplemented with 5% charcoal/dextran-treated FBS (HyClone), and 1 × 10^4 cells/well in 25 μl media were added to white 384-well plates. […] After 24 h, the Dual-Glo Luciferase Assay System (Promega) and EnVision microplate reader (PerkinElmer) were used to measure firefly and Renilla luciferase activities. CMV-driven Renilla luciferase was used as an indicator of general transcriptional modulation by the test compounds and is plotted as fold change (FC) relative to DMSO controls. Assays utilizing pGL4.54[luc2/TK], pGL4.53[luc2/PGK], or pGL4.13[luc2/SV40] were similarly performed and normalized.

PXR LBD [3] = molecular target: T1, PXR LBD; test: TR-FRET PXR LBD NCoR recruitment and release assays; type: biochemical; details: TR-FRET in the presence of 1 μM SPA70
Protocol: The TR-FRET PXR LBD NCoR recruitment assay was similarly performed, but with 500 nM FAM-NCoR peptide. Data were normalized using equations (2) and (3) with 10 μM SPA70 in place of T0901317 as the control. For the NCoR release assay, all wells contained 1 μM SPA70 to induce PXR LBD interaction with NCoR, and dose responses of agonists were used to disrupt the PXR LBD/SPA70/NCoR complex. In the release assay, 1 μM SPA70 alone served as the 100% control, and DMSO alone served as the 0% control. NCoR release assay wells contained 0.4% DMSO due to the two-compound addition.

CYP3A4 = details: cited from earlier work
PXR = test: RNA induction in HepaRG: PXR RNA (RT-qPCR); type: cell-based, human; details: differentiated HepaRG, 24 h; FC relative to DMSO
Protocol: Experiments with HepaRG cells were conducted similarly to previously described ([45]), with modifications. HepaRG cells were seeded in collagen-coated 24-well plates at 5 × 10^5 cells/well in HCM. Cells were differentiated for two weeks with HCM containing 2% DMSO. The cells were then treated with the respective chemicals for 24 h in HCM. The final DMSO concentration for the treatment was 0.5%. Total RNA was isolated from cells with Maxwell 16 LEV SimplyRNA Tissue Kits (Promega), and cDNA was generated from 250 ng of RNA with the SuperScript VILO cDNA Synthesis Kit (Thermo Fisher Scientific). Quantitative real-time polymerase chain reaction (RT-qPCR) was conducted with 2 μl of cDNA using TaqMan Fast Advanced Master Mix (Applied Biosystems) in an Applied Biosystems 7500 Fast Real-Time PCR System. TaqMan gene expression assays specific for CYP3A4 (Hs00604506_m1), PXR (Hs01114267_m1), MYC (Hs00153408_m1) and RNA18S (Hs03928990_g1) were purchased from Thermo Fisher Scientific. Fold induction values were calculated according to the 2^−ΔΔCt method, where ΔCt represents the differences in cycle threshold numbers between the target gene and reference gene and ΔΔCt represents the relative change in these differences between the control and treatment groups ([46]). RNA18S was used as the reference gene for relative quantification of all other genes.

[4] = LC–MS/MS test of JQ1 stability in crystallization solution; type: physicochemical; details: 1 μM JQ1, crystallization solution pH 7.4, 20°C
Protocol: An Echo 650 Acoustic Liquid Handler was used to dispense 50 nl/well of 1 mM JQ1 into 96-well assay plates (Corning Inc., one plate per time point, six replicate wells per time point). Crystallization solution (50 μl) was added to each well to yield final concentrations of 1 μM JQ1 and 0.1% DMSO. […] This composition matched the final composition of a crystallization drop containing a 1:1 ratio of protein to reservoir solution. To the 0-day plate, 100 μl cold acetonitrile (ACN) containing 400 ng/ml warfarin (Fluka Chemical Corporation) as the internal standard was immediately added to each well. The remaining plates were incubated at 20°C for 1–8 days followed by quenching with 100 μl cold ACN containing 400 ng/ml warfarin. Quenched samples were sealed and stored at -20°C until analysis. On the day of analysis, plates were thawed, shaken at 600 rpm for 10 min, and centrifuged at 2000 × g for 10 min. The supernatants (20 μl) were transferred to a new analytical 96-well plate (Corning Inc.) and diluted with 180 μl 50% ACN in Milli-Q water. Chromatographic separation was performed on an ACQUITY UPLC BEH C18 column (1.7 μm, 2.1 mm × 50 mm) (Waters Corporation) using the Triple Quad 6500 System (AB Sciex). The injection volume was 7 μl. […] Data were acquired using Analyst Software (AB Sciex, version 1.6.3) and analyzed using MultiQuant Software (AB Sciex, version 3.0.3).

Cc1sc2c(c1C)C(c1ccc(Cl)cc1)=N[C@@H](CC(=O)OC(C)(C)C)c1nnc(C)n1-2 [JQ1, (+)-JQ1]
binding to purified PXR LBD (binding potency) (PXR LBD [1]): comparable to rifampicin in binding potencies; also recorded: JQ1 > birabresib > CPI-203
recruitment of SRC-1 peptide to purified PXR LBD (PXR LBD [2]): induced SRC-1 recruitment; also recorded: JQ1 > birabresib > CPI-203
cytotoxicity (cell viability) (HepG2 cells): exhibited cytotoxicity at the concentrations required to activate the CYP3A4-luciferase reporter
PGK promoter-driven luciferase expression (PGK promoter): not positively modulated
inhibition of SPA70-mediated NCoR recruitment (NCoR release) (PXR LBD [3]): inhibited SPA70-mediated NCoR recruitment
CYP3A4 substrate (CYP3A4): is a CYP3A4 substrate
PXR RNA expression (PXR): greatly reduced PXR RNA
stability in the crystal growth condition [4]: does not degrade over a period of eight days

From paper PMC10899790, “A bromodomain-independent mechanism of gene regulation by the BET inhibitor JQ1: direct activation of nuclear receptor PXR” (Nucleic Acids Research, 2023)
